According to patent US8871715B2, “Use of selenium compounds, especially selenium yeasts for altering cognitive function” (Alltech, Inc., priority 2005, dated 2014):
Marks after values point to notes of the source that are not given here.

Tests used:
Type in all cases: in vivo, mouse (male C57BL/6J)
[1] = system: gene expression in the mouse intestine; assay: Gene expression in mouse intestine (microarray) with dietary selenium vs selenium deficient diet; settings: diet 1 ppm Se for 100 days vs selenium deficient diet
Source text: (§1) Animal Care. Male C57BL/6J mice were housed singly and started on the experimental diets described below immediately after weaning (21 days of age). The mice were maintained in the Shared Aging Rodent Facility at the William S. Middleton Memorial Veterans Administration Medical Center (Madison, Wis.). Temperature and humidity were maintained at constant levels. Room light was controlled to provide 12-hr cycles of light and dark.
(§2) Experimental diets were created by Harlan Teklad (Madison, Wis.). Selenium content of the diets was determined by Covance Inc. (Madison, Wis.). Five (5) animals were included in each of the following treatment groups: a diet deficient in selenium (SD); a diet supplemented with selenomethionine (SM, obtained from Sigma, St. Louis, Mo.) such that the final selenium content of the diet was one (1) part per million; a diet supplemented with sodium selenite (SS, Sigma) such that the final concentration of selenium in this diet was one (1) part per million; or a diet supplemented with the yeast selenium SEL-PLEX (SP, Alltech, Lexington, Ky.), such that the final concentration of selenium in this diet was one (1) part per million. SEL-PLEX. Mice were provided with water and their respective diet ad libitum for 100 days. Diets were stored at the dark at 4° C. and fresh diet was added to feeder twice weekly.
(§3) Tissue sample preparation and microarray analysis. Mice were killed at 100 days of age by cervical dislocation. For intestinal expression studies, the intestine was flushed twice with saline solution and small intestine was measured and divided in three equal segments. A 3-cm region of the middle segment of the small intestine corresponding to the jejunum (˜300 mg of tissue) was cut and rinsed again with physiological saline to completely remove contents, flash frozen in liquid nitrogen and stored at −80° C. For brain (e.g., cerebral cortex) studies, the cerebral cortex was separated from the surrounding brain tissue and was flash frozen in liquid nitrogen and stored at −80° C.
(§4) Total RNA was isolated from using the guanidinium isothiocyanate method of TRIZOL (Life Technologies, Grand Island, N.Y.) and individual samples were used for gene expression profiles. Total RNA was cleaned up by RNeasy Mini kit (Qiagen, Valencia, Calif.). Target RNA was prepared by converting […] total RNA into double-strand cDNA using GeneChip Expression 3′-Amplification Reagents One-Cycle cDNA Synthesis Kit (Affymetrix, Santa Clara, Calif.) with a T7-(dT)24 primer incorporating a T7 RNA polymerase promoter. After cleaning up double-strand cDNA using Genechip Sample Cleanup Module (Affymetrix, Santa Clara, Calif.), biotin-labeled cRNA was synthesized from double-strand cDNA using GeneChip Expression 3′-Amplification Reagents for IVT Labeling (Affymetrix, Santa Clara, Calif.). The biotin-labeled cRNA was cleaned up using Genechip Sample Cleanup Module and was fragmented by heating (35 min at 94° C.).
(§5) Fifteen (15) μg of cRNA fragments were hybridized (16 h at 45° C.) to Mouse Genome 430 2.0 Array (Affymetrix, Santa Clara, Calif.) using GeneChip Hybridization Oven 640. After hybridization, the gene chips were automatically washed and stained with streptavidin-phycoerythrin biotinylated anti-streptavidin using Affymetrix GeneChip Fluidics Station 450. The DNA chips were scanned with Affymetrix GeneChip Scanner 3000 (Affymetrix, Santa Clara, Calif.) to detect the cell signal intensities by laser. All calculations were performed with Affymetrix GeneChip Operating Software (GCOS) version 1.3 after scanning.
(§6) • 1. The spreadsheet containing probe set identifiers and signal intensity values was opened in Microsoft Excel (version 11.1.1 for the Macintosh OS-X operating system) and summary statistics were generated (mean signal intensity for each treatment group, standard error of the mean). Two-tailed t-tests (equal variance) were performed for the following treatment groups: SM vs. SD, SS vs. SD, and SP vs. SD. […]

[2] = system: brain (cerebral cortex) gene expression; assay: Gene expression in mouse brain (cerebral cortex, microarray) with dietary selenium vs selenium deficient diet; settings: diet 1 ppm Se for 100 days vs selenium deficient diet
Source text: as §1, §2, §3, §4, §5, §6

[3] = Body weight of mice on selenium diets
Source text: as §1
Experimental diets were created by Harlan Teklad (Madison, Wis.). Selenium content of the diets was determined by Covance Inc. (Madison, Wis.). […]
Thus, it was an object of the present invention to determine whether compositions and methods of the present invention could alter the expression levels (e.g., mRNA levels) of various genes. One group of genes analyzed were genes classically associated with selenium. As described above, the expression levels of genes were analyzed between mice with and without dietary selenium, or, between mice fed different sources of selenium) (See, e.g., Table 1, below).

In the case of `O=[Se](O)O` [Sod-sel, sodium selenite], the “Cu chaperone for SOD (CCS) expression, fold enhancement” value [1] is reported as 1.28 fold, the “Glutathione Peroxidase 1 gene expression, fold change (FC)” value [1] is reported as 4.1 fold and the “Glutathione Peroxidase 3 gene expression, fold change (FC)” value [1] is reported as 3.5 fold. The “Glutathione S-transferase, alpha 3 (Gsta3) expression, FC” value [1] was −2.3 fold, the “Glutathione S-transferase, mu 1 (Gstm1) expression, FC” value [1] was −2.4 fold and the “Glutathione S-transferase, mu 2 (Gstm2) expression, FC” value [1] was −2.1 fold. For the same molecule, the “Glutathione S-transferase, mu 3 (Gstm3) expression, FC” value [1] was −2.7 fold, the “Glutathione S-transferase, theta 2 (Gstt2) expression, FC” value [1] was −1.3 fold and the “Growth arrest and DNA-damage-inducible 45 gamma (Gadd45g) expression, FC” value [1] was −2.0 fold. The “SOD1 expression, fold enhancement” value [1] was 1.92 fold, the “SelR (Selenoprotein X1) gene expression, fold upregulation” value [1] was 1.3 fold and the “Selenoprotein W (SelW) expression, fold upregulation” value [1] was 5.1 fold. The “Thioredoxin Reductase 1 gene expression, fold increase” value [1] was 1.7 fold, the “Type 1 iodothyronine deiodinase expression level, fold increase” value [1] was 2.8 fold and the “Gadd45b expression, FC” value ([2]; brain) was −1.39* fold. The “Gadd45g1p (Growth arrest and DNA-damage inducible 45 gamma interacting protein) expression, FC” value ([2]; brain) was −1.12 fold, the “Gst mu 7 (Gstm7) expression, FC” value ([2]; brain) was −1.25* fold and the “Gst pi 1 (Gstp1) expression, FC” value ([2]; brain) was 1.02 fold. The “Gst zeta 1 (Gstz1) expression, FC” value ([2]; brain) was −1.3 fold, the “Amyloid beta (A4) precursor protein-binding, family A, member 1 (Apba1) expression, FC” value ([2]; cerebral cortex) was −1.41 fold and the “Amyloid beta (A4) precursor protein-binding, family B, member 1 (Apbb1 or Fe65) expression, FC” value ([2]; cerebral cortex) was −1.32* fold. For the same molecule, the “Amyloid beta (A4) precursor-like protein (Aplp 1) expression, FC” value ([2]; cerebral cortex) was −1.55* fold, the “Cathepsin B expression, FC” value ([2]; cerebral cortex) was −1.13* fold and the “Cathepsin D expression, FC” value ([2]; cerebral cortex) was −1.24* fold. For the same molecule, the “Cathepsin O expression, FC” value ([2]; cerebral cortex) was −1.18 fold, the “Cathepsin Z expression, FC” value ([2]; cerebral cortex) was −1.30* fold and the “Complement component 1, q subcomponent binding protein, C1qbp expression, FC” value ([2]; cerebral cortex) was 1.11 fold. The “Complement component 1, q subcomponent, alpha polypeptide, C1qa expression, FC” value ([2]; cerebral cortex) was −1.18 fold, the “Complement component 1, q subcomponent, beta polypeptide, expression, FC” value ([2]; cerebral cortex) was −1.35 fold and the “Complement component 1, q subcomponent, gamma polypeptide, C1qg expression, FC” value ([2]; cerebral cortex) was −1.07 fold. For the same molecule, the “Complement component 1, r subcomponent, C1r expression, FC” value ([2]; cerebral cortex) was −1.29 fold, the “Junb expression, FC” value ([2]; cerebral cortex) was −1.59 fold and the “Nicastrin expression, FC” value ([2]; cerebral cortex) was −1.67* fold. The “Presenilin 1 expression, FC” value ([2]; cerebral cortex) was −1.11 fold and the “body weights of mice” value ([3]; diets with 1 ppm Se vs selenium deficient diet, FIG. 1) was “No significant differences”.

For `C[Se]CC[C@H](N)C(=O)O` [SeM, selenomethionine], the “Glutathione Peroxidase 1 gene expression, fold change (FC)” value [1] was 4.9 fold, the “Glutathione Peroxidase 3 gene expression, fold change (FC)” value [1] was 4.6 fold and the “Glyoxalase 1 (Glo1) expression, fold reduction” value [1] was “not significantly affected”. The “Growth arrest and DNA-damage-inducible 45 gamma (Gadd45g) expression, FC” value [1] was −1.5 fold, the “LIM homeobox protein 8 gene (Lhx8) expression, fold upregulation” value [1] was “not significantly different” and the “Neurogenin 3 (Neurog3) expression, fold upregulation” value [1] was “no significant alteration”. The “Prohibitin (Phb) expression, fold upregulation” value [1] was 1.6 fold, the “SelR (Selenoprotein X1) gene expression, fold upregulation” value [1] was “not significantly affected” and the “Selenoprotein W (SelW) expression, fold upregulation” value [1] was “not significantly altered”. For the same molecule, the “Thioredoxin Reductase 1 gene expression, fold increase” value [1] was 1.8 fold, the “expression pattern of GST genes (summary in words)” value [1] was “no alteration” and the “selenoprotein N1 (Sepn1) gene expression, fold increase” value [1] was “not significantly affected”. The “sprouty homolog 2 gene (Spry2) expression, fold reduction” value [1] was “no alteration”, the “transforming growth factor beta 2 (TGF-β2) expression, fold upregulation” value [1] was “not altered” and the “type II iodothyronine deiodinase (Dio2) expression, fold down-regulation” value [1] was “no ability to alter”. The “Gadd45g1p expression in intestinal tissue (in words)” value ([1]; p<0.05) was “decreased expression”, the “CORS-26 expression, fold reduction” value ([2]; cerebral cortex) was “no alteration” and the “Complement component 1, q subcomponent, gamma polypeptide, C1qg expression, FC” value ([2]; cerebral cortex) was 1.0 fold. The “expression of complement component genes (summary in words)” value ([2]; cerebral cortex) was “did not provide a statistically significant alteration” and the “body weights of mice” value ([3]; mouse, in vivo) was “No significant differences”.
